# Data as given in patent US12145947B2, “Pyrimidine based modulators and uses thereof” (Quanta Therapeutics, Inc., priority 2022, dated 2024).
# Biological target: T1, GST-tagged KRAS-G12D (2-169) (Homo sapiens, UniProt P01116, G12D)
# T1 construct: GST-tagged KRAS-G12D (2-169, Reaction Biology, MSC-11-539); purchased Reaction Biology MSC-11-539 (KRAS G12D); MSC-11-502 (SOS1cat)
# Assay: Nucleotide exchange assay (NEA), SOS-mediated, HTRF, KRAS G12D
# Assay type: biochemical
# Settings: Table 4; IC50 extracted at 30 min
# Outline: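 IC50 values come from 4-parameter fits at the 30 min time point of an SOS-driven exchange read by HTRF, normalised to DMSO (0%) and SOS-free blank (100%). Final reaction: 5 nM GST-KRAS-G12D (2-169), 20 nM SOScat, 150 nM fluorescent GTP-DY-647P1, after 1 h RT compound preincubation with KRAS and Tb-cryptate anti-GST.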
# T1 sequence (P01116 2-169 isoform P01116-2 G12D): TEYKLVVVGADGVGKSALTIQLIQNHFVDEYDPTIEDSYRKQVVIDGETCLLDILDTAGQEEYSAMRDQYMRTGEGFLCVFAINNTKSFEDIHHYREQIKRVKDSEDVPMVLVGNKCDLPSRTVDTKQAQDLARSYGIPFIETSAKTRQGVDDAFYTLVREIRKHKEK
structure (smiles),measurement,value
"Cc1nc(-c2nn3c(c2Cl)CN(c2nc(OC[C@@]45CCCN4C[C@H](F)C5)nc(N4CC5(CCc6sc(N)c(C#N)c65)C4)c2C#N)CCC3)n(C)n1 [Compound 85, 2-amino-1′-[6-[3-chloro-2-(2,5-dimethyl-1,2,4-triazol-3-yl)-4,6,7,8-tetrahydropyrazolo[1,5-a][1,4]diazepin-5-yl]-5-cyano-2-[[(2R,8S)-2-fluoro-1,2,3,5,6,7-hexahydropyrrolizin-8-yl]methoxy]pyrimidin-4-yl]spiro[5,6-dihydrocyclopenta[b]thiophene-4,3′-azetidine]-3-carbonitrile]",IC50,< 0.01 µM
"N#Cc1c(N2C[C@H]3CC[C@@H](C2)N3)nc(OCC2(CN3CCOCC3)CC2)nc1N1CC2(C=CCc3sc(N)c(C#N)c32)C1 [Compound 86, 2-amino-1′-[5-cyano-2-[[1-(morpholinomethyl)cyclopropyl]methoxy]-6-[(1R,5S)-3,8-diazabicyclo[3.2.1]octan-3-yl]pyrimidin-4-yl]spiro[7H-benzothiophene-4,3′-azetidine]-3-carbonitrile]",IC50,< 0.01 µM
"CN(C)CC1(COc2nc(N3CCCn4nc(C(=O)N(C)C)c(Cl)c4C3)c(C#N)c(N3CC4(CCc5sc(N)c(C#N)c54)C3)n2)CC1(F)F (stereo not shown) [Compound 87, 5-[6-(2-amino-3-cyano-spiro[5,6-dihydrocyclopenta[b]thiophene-4,3′-azetidine]-1′-yl)-5-cyano-2-[[1-[(dimethylamino)methyl]-2,2-difluoro-cyclopropyl]methoxy]pyrimidin-4-yl]-3-chloro-N,N-dimethyl-4,6,7,8-tetrahydropyrazolo[1,5-a][1,4]diazepine-2-carboxamide]",IC50,< 0.01 µM
"C[C@H](Oc1nc(N2C[C@H]3CC[C@@H](C2)N3)c(C#N)c(N2CC3(CCc4sc(N)c(C#N)c43)C2)n1)[C@@H]1CCCN1C [Compound 88, 2-amino-1′-[5-cyano-6-[(1R,5S)-3,8-diazabicyclo[3.2.1]octan-3-yl]-2-[(1S)-1-[(2S)-1-methylpyrrolidin-2-yl]ethoxy]pyrimidin-4-yl]spiro[5,6-dihydrocyclopenta[b]thiophene-4,3′-azetidine]-3-carbonitrile]",IC50,0.01 to 0.1 µM
"N#Cc1c(N2C[C@H]3CC[C@@H](C2)N3)nc(OCC2(CN3C[C@@H]4C[C@H]3CO4)CC2)nc1N1CC2(CCc3sc(N)c(C#N)c32)C1 [Compound 89, 2-amino-1′-[5-cyano-6-[(1R,5S)-3,8-diazabicyclo[3.2.1]octan-3-yl]-2-[[1-[[(1S,4S)-2-oxa-5-azabicyclo[2.2.1]heptan-5-yl]methyl]cyclopropyl]methoxy]pyrimidin-4-yl]spiro[5,6-dihydrocyclopenta[b]thiophene-4,3′-azetidine]-3-carbonitrile]",IC50,< 0.01 µM
"CN(C)C(=O)c1nn2c(c1Cl)CN(c1nc(OC[C@@]34CCCN3C[C@H](F)C4)nc(N3CC4(CCc5sc(N)c(C#N)c54)C3)c1C#N)CC(F)(F)C2 [Compound 91, 5-[6-(2-amino-3-cyano-spiro[5,6-dihydrocyclopenta[b]thiophene-4,3′-azetidine]-1′-yl)-5-cyano-2-[[(2R,8S)-2-fluoro-1,2,3,5,6,7-hexahydropyrrolizin-8-yl]methoxy]pyrimidin-4-yl]-3-chloro-7,7-difluoro-N,N-dimethyl-6,8-dihydro-4H-pyrazolo[1,5-a][1,4]diazepine-2-carboxamide]",IC50,< 0.01 µM
"N#Cc1c(N2C[C@H]3CC[C@@H](C2)N3)nc(OC[C@@H]2CCN2CC(F)(F)F)nc1N1CC2(CCc3sc(N)c(C#N)c32)C1 [Compound 92, 2-amino-1′-[5-cyano-6-[(1R,5S)-3,8-diazabicyclo[3.2.1]octan-3-yl]-2-[[(2S)-1-(2,2,2-trifluoroethyl)azetidin-2-yl]methoxy]pyrimidin-4-yl]spiro[5,6-dihydrocyclopenta[b]thiophene-4,3′-azetidine]-3-carbonitrile]",IC50,0.01 to 0.1 µM
"C=C1CN2CCCC2(COc2nc(N3CCCn4nc(C(=O)N(C)C)c(Cl)c4C3)c(C#N)c(N3CC4(CCc5sc(N)c(C#N)c54)C3)n2)C1 (stereo not shown) [Compound 93, 5-[6-(2-amino-3-cyano-spiro[5,6-dihydrocyclopenta[b]thiophene-4,3′-azetidine]-1′-yl)-5-cyano-2-[(6-methylene-2,3,5,7-tetrahydro-1H-pyrrolizin-8-yl)methoxy]pyrimidin-4-yl]-3-chloro-N,N-dimethyl-4,6,7,8-tetrahydropyrazolo[1,5-a][1,4]diazepine-2-carboxamide]",IC50,< 0.01 µM
"C=C1CN2CCCC2(COc2nc(N3C[C@H]4CC[C@@H](C3)N4)c(C#N)c(N3CC4(CCc5sc(N)c(C#N)c54)C3)n2)C1 (stereo partly drawn) [Compound 94, 2-amino-1′-[5-cyano-2-[(6-methylene-2,3,5,7-tetrahydro-1H-pyrrolizin-8-yl)methoxy]-6-[(1R,5S)-3,8-diazabicyclo[3.2.1]octan-3-yl]pyrimidin-4-yl]spiro[5,6-dihydrocyclopenta[b]thiophene-4,3′-azetidine]-3-carbonitrile]",IC50,< 0.01 µM
"CN(C)CC1(COc2nc(N3CCCn4nc(C(=O)N(C)C)c(Cl)c4C3)c(C#N)c(N3CC4(CCCc5sc(N)c(C#N)c54)C3)n2)CC1(F)F (stereo not shown) [Compound 96, 5-[6-(2-amino-3-cyano-spiro[6,7-dihydro-5H-benzothiophene-4,3′-azetidine]-1′-yl)-5-cyano-2-[[1-[(dimethylamino)methyl]-2,2-difluoro-cyclopropyl]methoxy]pyrimidin-4-yl]-3-chloro-N,N-dimethyl-4,6,7,8-tetrahydropyrazolo[1,5-a][1,4]diazepine-2-carboxamide]",IC50,< 0.01 µM
"Cn1nccc1COc1nc(N2C[C@H]3CC[C@@H](C2)N3)c(C#N)c(N2CC3(CCc4sc(N)c(C#N)c43)C2)n1 [Compound 97, 2-amino-1′-[5-cyano-2-[(2-methylpyrazol-3-yl)methoxy]-6-[(1R,5S)-3,8-diazabicyclo[3.2.1]octan-3-yl]pyrimidin-4-yl]spiro[5,6-dihydrocyclopenta[b]thiophene-4,3′-azetidine]-3-carbonitrile]",IC50,< 0.01 µM
"N#Cc1c(N2C[C@H]3CC[C@@H](C2)N3)nc(OCC2(c3ccn[nH]3)CC2)nc1N1CC2(CCc3sc(N)c(C#N)c32)C1 [Compound 98, 2-amino-1′-[5-cyano-6-[(1R,5S)-3,8-diazabicyclo[3.2.1]octan-3-yl]-2-[[1-(1H-pyrazol-5-yl)cyclopropyl]methoxy]pyrimidin-4-yl]spiro[5,6-dihydrocyclopenta[b]thiophene-4,3′-azetidine]-3-carbonitrile]",IC50,< 0.01 µM
"N#Cc1c(N2C[C@H]3CC[C@@H](C2)N3)nc(OC[C@@]23CCCN2C[C@H](F)C3)nc1N1CC2(C1)c1c(sc(N)c1C#N)CC1CC12 (stereo partly drawn) [Compound 99, 2-amino-1′-[5-cyano-6-[(1R,5S)-3,8-diazabicyclo[3.2.1]octan-3-yl]-2-[[(2R,8S)-2-fluoro-1,2,3,5,6,7-hexahydropyrrolizin-8-yl]methoxy]pyrimidin-4-yl]spiro[4a,5,5a,6-tetrahydrocyclopropa[f]benzothiophene-4,3′-azetidine]-3-carbonitrile]",IC50,< 0.01 µM
"N#Cc1c(N2C[C@H]3CC[C@@H](C2)N3)nc(OCC2(CN3CCOCC3)CC2)nc1N1CC2(C1)SCc1sc(N)c(C#N)c12 [Compound 100, 2-amino-1′-[5-cyano-6-[(1R,5S)-3,8-diazabicyclo[3.2.1]octan-3-yl]-2-[[1-(morpholinomethyl)cyclopropyl]methoxy]pyrimidin-4-yl]spiro[6H-thieno[2,3-c]thiophene-4,3′-azetidine]-3-carbonitrile]",IC50,< 0.01 µM
"N#Cc1c(N2C[C@H]3CC[C@@H](C2)N3)nc(OCC2(CN3CCOCC3)CC2)nc1N1CC2(C1)c1c(sc(N)c1C#N)CC2F (stereo partly drawn) [Compound 101, 2-amino-1′-[5-cyano-6-[(1R,5S)-3,8-diazabicyclo[3.2.1]octan-3-yl]-2-[[1-(morpholinomethyl)cyclopropyl]methoxy]pyrimidin-4-yl]-5-fluoro-spiro[5,6-dihydrocyclopenta[b]thiophene-4,3′-azetidine]-3-carbonitrile]",IC50,< 0.01 µM
Cc1n[nH]nc1COc1nc(N2C[C@H]3CC[C@@H](C2)N3)c(C#N)c(N2CC3(CCc4sc(N)c(C#N)c43)C2)n1 [Compound 108],IC50,0.01 to 0.1 µM
